Where two headings read alike, the source gives them in different places. A value given as a limit tells only on which side of the number the result lay.

One test concerns the target p38 (Homo sapiens, UniProt Q16539). In words: p38 in-vitro HTRF enzyme assay. It is filed as biochemical. Conditions: recombinant human enzyme, read-out: p38 enyme HTRF assay IC50. On the procedure: p38 In-Vitro HTRF Enzyme Assay
The compounds of the invention can be tested for their respective affinities for the p38 protein using a conventional p38 in-vitro enzyme activity assay. For example, a P38-alpha HTRF assay may be used to measure the protein's in-vitro phosphorylation activity, and the data analyzed using time resolved fluorimetry techniques (FRET). A p38 HTRF assay is as follows. The kinase reaction buffer for p38α, p38β, p38δ and p38γ HTRF assays consists of 50 mM Tris-pH 7.5, 5 mM MgCl2, 0.1 mg/mL BSA, 100 μM Na3VO4 and 0.5 mM DTT. The HTRF detection buffer contains 100 mM HEPES-pH 7.5, 100 mM NaCl, 0.1% BSA, 0.05% Tween-20, and 10 mM EDTA. Each compound was dissolved in 100% DMSO and serially diluted (3 fold, 10 point) in a polypropylene 96-well microtiter plate (drug plate). The final starting concentration of the compound in the p38α and p38β enzymatic assays was about 1 μM. The final starting concentration of each compound in the p38δ and p38γ enzymatic assays was about 10 μM. The p38α, p38β, p38δ and p38γ kinase reactions were carried out in a polypropylene 96-well black round bottom assay plate in total volume of 30 μL kinase reaction buffer. Appropriate concentration of purified and activated enzyme (recombinant human) was mixed with indicated concentration of ATP and 100 nM GST-ATF2-Avitag, in the presence or absence (HI control) of each compound. In the absence of enzyme, the background was measured as LO control. HI controls and LO controls contained only DMSO. The reaction was allowed to incubate for 1 hour at RT. […] After 60 minutes incubation at room temperature, the assay plate was read in a Discovery Plate Reader. […] The resulting data was analyzed by taking the proportion of substrate phosphorylated in the kinase reaction in the presence of each individual compound and comparing it with that phosphorylated in the presence of DMSO vehicle alone (HI control). The data was calculated using the formula: % control (POC)=(compound−average LO)/(average HI−average LO)*100. […] All results were expressed as the mean±the standard error of the mean. Data acquisition and non-linear regression algorithms were performed using Activity Base v5.2 and XLfit software v4.1 respectively. Additional assay information may be obtained in Park Y W, Cummings R T, Wu L, et al. Homogeneous Proximity Tyrosine Kinase Assays Scintillation Proximity Assay versus Homogeneous Time-Resolved Fluorescence. Analytical Biochemistry.

In another test the test system is IL-1. In words: LPS induced IL-1 cell based assay (LPS-activated monocytes). Conditions: Homo sapiens, Monocyte. As for the experimental part: Lipopolysaccharide-Activated Monocyte TNF Production Assay
Test compounds were evaluated in vitro for the ability to inhibit the production of TNF by monocytes activated with bacterial lipopolysaccharide (LPS). Fresh residual source leukocytes (a byproduct of plateletpheresis) were obtained from a local blood bank, and peripheral blood mononuclear cells (PBMCs) were isolated by density gradient centrifugation on Ficol-Paque Plus (Pharmacia). PBMCs were suspended at 2×10^6/mL in DMEM supplemented to contain 2% FCS, 10 mM, 0.3 mg/mL […], 100 U/mL penicillin G and […] streptomycin sulfate (complete media). Cells were plated into Falcon flat bottom, 96 well culture plates (200 μL/well) and cultured overnight at 37° C. and 6% CO2. Non-adherent cells were removed by washing with 200 μl/well of fresh medium. Wells containing adherent cells (˜70% monocytes) were replenished with 100 μL of fresh medium.
Preparation of Test Compound Stock Solutions
Test compounds were dissolved in […]. Compound stock solutions were prepared to an initial concentration of […]. Stocks were diluted initially to 20-200 μM in complete media. Nine two-fold serial dilutions of each compound were then prepared in complete medium.
Treatment of Cells with Test Compounds and Activation of TNF Production with Lipopolysaccharide
One hundred microliters of each test compound dilution were added to microtiter wells containing adherent monocytes and 100 μL complete medium. Monocytes were cultured with test compounds for 60 min at which time 25 μL of complete medium containing 30 ng/mL lipopolysaccharide from E. coli K532 were added to each well. Cells were cultured an additional 4 hrs. Culture supernatants were then removed and TNF presence in the supernatants was quantified using an ELISA. […]
Standard curve data were fit to a second order polynomial and unknown TNF-α concentrations determined from their OD by solving this equation for concentration. TNF concentrations were then plotted vs. test compound concentration using a second order polynomial. This equation was then used to calculate the concentration of test compounds causing a 50% reduction in TNF production.
Compounds of the invention can also be shown to inhibit LPS-induced release of IL-1β, IL-6 and/or IL-8 from monocytes by measuring concentrations of IL-1β, IL-6 and/or IL-8 by methods well known to those skilled in the art. […] Thus, the compounds of the invention may lower elevated levels of TNF-α, IL-1, IL-6, and IL-8 levels. Reducing elevated levels of these inflammatory cytokines to basal levels or below is favorable in controlling, slowing progression, and alleviating many disease states.

A further test concerns THP1 cells. In words: Lipopolysaccharide-activated THP1 cell TNF production assay (THP1 cell based). Conditions: Homo sapiens, THP-1, LPS-induced TNF-α. On the procedure: Lipopolysaccharide-Activated THP1 Cell TNF Production Assay
THP1 cells are resuspended in fresh THP1 media (RPMI 1640, 10% heat-inactivated FBS, 1XPGS, 1XNEAA, plus 30 μM PME) at a concentration of 1E6/mL. One hundred microliters of cells per well are plated in a polystyrene 96-well tissue culture. One microgram per mL of bacterial LPS is prepared in THP1 media and is transferred to the wells. Test compounds are dissolved in 100% DMSO and are serially diluted 3-fold in a polypropylene 96-well microtiter plate (drug plate). HI control and LO control wells contain only DMSO. One microliter of test compound from the drug plate followed by 10 μL of LPS are transferred to the cell plate. The treated cells are induced to synthesize and secrete TNF-α at 37° C. for 3 h. Forty microliters of conditioned media are transferred to a 96-well polypropylene plate containing 110 μL of ECL buffer (50 mM Tris-HCl pH 8.0, 100 mM NaCl, 0.05% Tween 20, 0.05% NaN3 and 1% FBS) supplemented with 0.44 nM MAB610 monoclonal Ab (R&D Systems), 0.34 nM ruthenylated AF210NA polyclonal Ab (R&D Systems) and 44 μg/mL sheep anti-mouse M280 Dynabeads (Dynal). After a 2 h incubation at room temperature with shaking, the reaction is read on the ECL M8 Instrument (IGEN Inc.). A low voltage is applied to the ruthenylated TNF-α immune complexes, which in the presence of TPA (the active component in Origlo), results in a cyclical redox reaction generating light at […]. The amount of secreted TNF-α in the presence of compound compared with that in the presence of DMSO vehicle alone (HI control) is calculated using the formula: % control (POC)=(cpd−average LO)/(average HI−average LO)*100. Data (consisting of POC and inhibitor concentration in μM) is fitted to a 4-parameter equation (y=A+((B−A)/(1+((x/C)^D))), where A is the minimum y (POC) value, B is the maximum y (POC), C is the x (cpd concentration) at the point of inflection and D is the slope factor) using a Levenburg-Marquardt non-linear regression algorithm.

p38, sequence (Q16539 whole entry): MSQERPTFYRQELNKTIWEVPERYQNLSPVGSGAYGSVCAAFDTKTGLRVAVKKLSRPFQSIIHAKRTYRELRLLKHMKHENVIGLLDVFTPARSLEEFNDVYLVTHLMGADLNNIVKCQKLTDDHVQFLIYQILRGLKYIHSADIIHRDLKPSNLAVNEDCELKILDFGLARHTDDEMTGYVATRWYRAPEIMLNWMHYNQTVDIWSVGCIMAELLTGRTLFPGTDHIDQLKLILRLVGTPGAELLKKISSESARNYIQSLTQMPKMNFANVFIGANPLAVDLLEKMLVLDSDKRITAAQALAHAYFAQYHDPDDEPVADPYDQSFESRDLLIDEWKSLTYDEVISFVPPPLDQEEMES

Take `CCn1c(=O)cc(Nc2cc(C(=O)NC3CC3)ccc2C)c2cnn(-c3ccc(F)cc3)c21` [Example 23, N-cyclopropyl-3-((7-ethyl-1-(4-fluorophenyl)-6-oxo-6,7-dihydro-1H-pyrazolo[3,4-b]pyridin-4-yl)amino)-4-methylbenzamide]: the IC50 on p38 (range symbols), in the test on IL-1 (range symbols) and in the test on THP1 cells (range symbols) was less than 25 nM in each case.

Take `Cc1ccncc1Nc1cc(=O)n(C)c2c1cnn2-c1cc(F)ccc1F` [Example 8, 1-(2,5-difluorophenyl)-7-methyl-4-((4-methyl-3-pyridinyl)amino)-1,7-dihydro-6H-pyrazolo[3,4-b]pyridin-6-one]: the results for the half-maximal inhibitory concentration (IC50) on p38 (range symbols), in the test on IL-1 (range symbols) and in the test with THP1 cells (range symbols) were 1000 to 5000 nM, 250 to 999 nM and 100 to 249 nM, respectively.

In the case of `Cc1ccc(C(=O)O)cc1Nc1cc(=O)n(C)c2c1cnn2-c1ccc(F)cc1F` [Example 17, 3-((1-(2,4-difluorophenyl)-7-methyl-6-oxo-6,7-dihydro-1H-pyrazolo[3,4-b]pyridin-4-yl)amino)-4-methylbenzoic acid], the IC50 at p38 (range symbols), in the test with IL-1 (range symbols) and in the test on THP1 cells (range symbols) was 1000 to 5000 nM throughout.

Regarding `CCn1c(=O)cc(Nc2cc(C(=O)NC3CC3)ccc2Cl)c2cnn(-c3ccc(F)cc3)c21` [Example 29, 4-chloro-N-cyclopropyl-3-((7-ethyl-1-(4-fluorophenyl)-6-oxo-6,7-dihydro-1H-pyrazolo[3,4-b]pyridin-4-yl)amino)benzamide], the values for the IC50 on p38 (actual values), in the test with IL-1 (actual values) and in the test with THP1 cells (actual values) were 1.7 nM, 3.6 nM and 1.4 nM, respectively.

For `Cn1c(=O)cc(Nc2cc(C(=O)NC3CC3)ccc2Cl)c2cnn(-c3cc(F)ccc3F)c21` [Example 12, 4-chloro-N-cyclopropyl-3-((1-(2,5-difluorophenyl)-7-methyl-6-oxo-6,7-dihydro-1H-pyrazolo[3,4-b]pyridin-4-yl)amino)benzamide], the IC50 at p38 (range symbols), in the test on IL-1 (range symbols) and with THP1 cells (range symbols) was less than 25 nM each time.

On to `Cn1c(=O)cc(Nc2cc(C(=O)NC3CC3)ccc2F)c2cnn(-c3ccc(F)cc3F)c21` [Example 7, N-cyclopropyl-3-((1-(2,4-difluorophenyl)-7-methyl-6-oxo-6,7-dihydro-1H-pyrazolo[3,4-b]pyridin-4-yl)amino)-4-fluorobenzamide], for which the values for the IC50 at p38 (range symbols), with IL-1 (range symbols) and with THP1 cells (range symbols) were less than 25 nM, 25 to 99 nM and less than 25 nM, respectively.

On to `Cc1ccc(C(=O)NC2CC2)cc1Oc1cc(=O)n(C)c2c1cnn2-c1cc(F)ccc1F` [Example 22, N-cyclopropyl-3-((1-(2,5-difluorophenyl)-7-methyl-6-oxo-6,7-dihydro-1H-pyrazolo[3,4-b]pyridin-4-yl)oxy)-4-methylbenzamide], for which the IC50 on p38 (range symbols) is less than 25 nM; with IL-1 (range symbols), 100 to 249 nM; with THP1 cells (range symbols), less than 25 nM.

For `Cc1ccc(C(=O)NC2CC2)cc1Nc1cc(=O)n(C)c2c1cnn2-c1c(F)cccc1F` [Example 15, N-cyclopropyl-3-((1-(2,6-difluorophenyl)-7-methyl-6-oxo-6,7-dihydro-1H-pyrazolo[3,4-b]pyridin-4-yl)amino)-4-methylbenzamide], the IC50 on p38 (range symbols), in the test with IL-1 (range symbols) and in the test with THP1 cells (range symbols) was less than 25 nM throughout.

With `Cc1ccc(C(=O)NC2CC2)cc1Oc1cc(=O)n(C)c2c1cnn2-c1cccc(F)c1` [Example 5, N-cyclopropyl-3-((1-(3-fluorophenyl)-7-methyl-6-oxo-6,7-dihydro-1H-pyrazolo[3,4-b]pyridin-4-yl)oxy)-4-methylbenzamide], the IC50 at p38 (range symbols) is less than 25 nM; with IL-1 (range symbols), 100 to 249 nM; in the test with THP1 cells (range symbols) it was less than 25 nM.

As for `Cn1c(=O)cc(Nc2cc(C(=O)NC3CC3)ccc2Cl)c2cnn(-c3c(F)cccc3F)c21` [Example 11, 4-chloro-N-cyclopropyl-3-((1-(2,6-difluorophenyl)-7-methyl-6-oxo-6,7-dihydro-1H-pyrazolo[3,4-b]pyridin-4-yl)amino)benzamide], the IC50 at p38 (range symbols), in the test with IL-1 (range symbols) and in the test on THP1 cells (range symbols) was less than 25 nM in each case.

Turning to `Cn1c(=O)cc(Nc2ccc(F)cc2)c2cnn(-c3c(F)cccc3F)c21` [Example 10, 1-(2,6-difluorophenyl)-4-((4-fluorophenyl)amino)-7-methyl-1,7-dihydro-6H-pyrazolo[3,4-b]pyridin-6-one], the IC50 is 1000 to 5000 nM on p38 (range symbols), 1000 to 5000 nM with IL-1 (range symbols) and 250 to 999 nM in the test with THP1 cells (range symbols).

In the case of `Cn1c(=O)cc(Nc2cc(C(=O)NC3CC3)ccc2Cl)c2cnn(-c3ccc(F)cc3)c21` [Example 28, 4-chloro-N-cyclopropyl-3-((1-(4-fluorophenyl)-7-methyl-6-oxo-6,7-dihydro-1H-pyrazolo[3,4-b]pyridin-4-yl)amino)benzamide], the values for the 50% inhibitory concentration (IC50) at p38 (actual values), in the test on IL-1 (actual values) and in the test with THP1 cells (actual values) were 2.1 nM, 4.2 nM and 0.8 nM, respectively.

What is called IC50 is the midpoint of a concentration-inhibition curve.
